We go through 4 molecules from ChEMBL document CHEMBL1141249, “Lucentamycins A-D, cytotoxic peptides from the marine-derived actinomycete Nocardiopsis lucentensis” (J Nat Prod, 2007).

Activity calls are given as the source filed them. The calls are words filed in the database; no cut-off is given here.

Assay [1] relates to HCT-116. The assay is described as follows: Cytotoxicity against human HCT116 cells upto 150 uM by MTS assay. Type of assay: functional, cell-based.
Assay [2] concerns HCT-116. Briefly: Cytotoxicity against human HCT116 cells by MTS assay. Type of assay: functional, cell-based. In general terms: Formazan colour is commonly taken as a measure of viable cells.

In the case of `C/C=C1\CN(C(=O)[C@H](CCCCNC(=N)N)NC(=O)C=C(C)C)[C@H](C(=O)N[C@@H](CC(C)C)C(=O)O)[C@@H]1C`, the outcome in assay [1] was inactive.
Regarding `C/C=C1\CN(C(=O)[C@H](CCCCNC(=N)N)NC(=O)CC(C)C)[C@H](C(=O)N[C@@H](CC(C)C)C(=O)O)[C@@H]1C`, in assay [1], the outcome was inactive.
In assay [2], `C/C=C1/CN(C(=O)[C@H](CCCCNC(=N)N)NC(=O)CC(C)C)[C@H](C(=O)N[C@@H](Cc2c[nH]c3ccccc23)C(=O)O)[C@@H]1C` [LUCENTAMYCIN B] had an IC50 of 11 µM.
On the same count and under the same terms, the figure for `C/C=C1\CN(C(=O)[C@H](CCCCNC(=N)N)NC(=O)c2ccccc2)[C@H](C(=O)N[C@@H](CC(C)C)C(=O)O)[C@@H]1C` [LUCENTAMYCIN A] is 0.2 µM.

For orientation: IC50 means the midpoint of a concentration-inhibition curve.
